For experiment [1], the target named is Ephrin type-A receptor 7 (Homo sapiens) (UniProt Q15375). The experiment can be described thus: Selectivity interaction (KinomeScan (DiscoverX)) EUB0000595a EPHA7. Particulars: at 10 µM.
Experiment [2] deals with T1, Fibroblast growth factor receptor 1 (Homo sapiens, UniProt P11362). The experiment can be described thus: Selectivity interaction (KinomeScan (DiscoverX)) EUB0000595a FGFR1. The note with it: at 10 µM.
The target in experiment [3] is Endothelin-1 receptor (Homo sapiens) (UniProt P25101). Nature of the experiment: Selectivity interaction (Eurofins CEREP Diversity Profile (receptors and ion channels)) EUB0000279b EDNRA. The note with it: at 10 µM.
In experiment [4] the target is Myosin light chain kinase 2, skeletal/cardiac muscle (Homo sapiens) (UniProt Q9H1R3). The experiment can be described thus: Selectivity interaction (SelectScreen profiling (Invitrogen)) EUB0000607a MYLK2. The note with it: at 2 µM.
In experiment [5] the target is T1, Fibroblast growth factor receptor 1. The note with it: at 10 µM.
The target in experiment [6] is T2, Tyrosine-protein kinase Mer (Homo sapiens) (UniProt Q12866).
T2 sequence (whole entry): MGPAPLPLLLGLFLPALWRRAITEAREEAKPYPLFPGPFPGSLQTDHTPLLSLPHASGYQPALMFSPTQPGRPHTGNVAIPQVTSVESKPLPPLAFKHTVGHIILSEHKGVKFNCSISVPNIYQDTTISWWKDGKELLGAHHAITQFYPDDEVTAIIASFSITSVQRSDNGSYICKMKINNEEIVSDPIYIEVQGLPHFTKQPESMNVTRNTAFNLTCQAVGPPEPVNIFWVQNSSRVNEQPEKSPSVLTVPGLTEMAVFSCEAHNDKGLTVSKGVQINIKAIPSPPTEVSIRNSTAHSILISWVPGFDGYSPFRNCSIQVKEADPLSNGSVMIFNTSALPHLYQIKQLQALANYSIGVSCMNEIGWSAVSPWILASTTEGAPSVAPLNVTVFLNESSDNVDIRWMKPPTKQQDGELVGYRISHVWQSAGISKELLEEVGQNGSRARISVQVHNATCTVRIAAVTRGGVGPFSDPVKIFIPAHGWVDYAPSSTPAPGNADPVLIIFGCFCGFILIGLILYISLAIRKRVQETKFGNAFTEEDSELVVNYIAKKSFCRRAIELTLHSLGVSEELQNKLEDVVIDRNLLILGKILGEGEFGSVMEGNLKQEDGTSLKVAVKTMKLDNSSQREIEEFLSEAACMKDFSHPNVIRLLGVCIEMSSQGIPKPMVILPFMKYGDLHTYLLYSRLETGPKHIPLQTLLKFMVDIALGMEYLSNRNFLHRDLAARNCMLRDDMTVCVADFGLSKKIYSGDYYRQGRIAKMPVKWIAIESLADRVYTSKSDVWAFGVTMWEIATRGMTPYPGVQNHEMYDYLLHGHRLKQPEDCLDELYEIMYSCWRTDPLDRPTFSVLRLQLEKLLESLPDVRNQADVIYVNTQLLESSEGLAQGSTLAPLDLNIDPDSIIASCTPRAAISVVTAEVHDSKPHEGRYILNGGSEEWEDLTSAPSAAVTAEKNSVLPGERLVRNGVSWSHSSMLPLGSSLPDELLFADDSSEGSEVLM
The experiment can be described thus: Selectivity interaction (Upstate Kinase Profiler service (Millipore)) EUB0000056c MERTK. The note with it: at 1 µM.

Experiment [7] has as its target T3, Serine/threonine-protein kinase BRSK2 (Homo sapiens) (UniProt Q8IWQ3).
T3 sequence (whole entry): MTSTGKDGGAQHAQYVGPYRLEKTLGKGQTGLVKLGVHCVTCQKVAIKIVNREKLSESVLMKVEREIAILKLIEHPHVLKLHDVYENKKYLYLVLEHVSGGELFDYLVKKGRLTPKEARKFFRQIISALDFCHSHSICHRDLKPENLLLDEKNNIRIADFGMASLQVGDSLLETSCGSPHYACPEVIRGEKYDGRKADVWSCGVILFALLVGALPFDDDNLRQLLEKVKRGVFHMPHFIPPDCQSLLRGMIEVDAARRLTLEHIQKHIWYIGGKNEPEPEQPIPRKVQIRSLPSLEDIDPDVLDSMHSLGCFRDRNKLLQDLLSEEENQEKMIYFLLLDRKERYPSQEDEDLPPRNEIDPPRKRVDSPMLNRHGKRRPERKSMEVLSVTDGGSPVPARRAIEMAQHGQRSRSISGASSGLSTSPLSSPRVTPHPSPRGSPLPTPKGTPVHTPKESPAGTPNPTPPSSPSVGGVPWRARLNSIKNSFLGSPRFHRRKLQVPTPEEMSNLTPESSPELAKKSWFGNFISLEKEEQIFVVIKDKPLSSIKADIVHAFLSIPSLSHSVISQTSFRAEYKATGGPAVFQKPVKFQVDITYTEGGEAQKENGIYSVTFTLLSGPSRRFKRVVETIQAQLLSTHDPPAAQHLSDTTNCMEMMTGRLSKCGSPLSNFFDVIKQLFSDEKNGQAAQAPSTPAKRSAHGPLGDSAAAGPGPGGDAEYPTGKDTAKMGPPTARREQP
The experiment can be described thus: Selectivity interaction (KinomeScan (DiscoverX)) EUB0000618a BRSK2. The note with it: at 10 µM.

The target in experiment [8] is T4, Tyrosine-protein kinase receptor TYRO3 (Homo sapiens) (UniProt Q06418).
T4 sequence (whole entry): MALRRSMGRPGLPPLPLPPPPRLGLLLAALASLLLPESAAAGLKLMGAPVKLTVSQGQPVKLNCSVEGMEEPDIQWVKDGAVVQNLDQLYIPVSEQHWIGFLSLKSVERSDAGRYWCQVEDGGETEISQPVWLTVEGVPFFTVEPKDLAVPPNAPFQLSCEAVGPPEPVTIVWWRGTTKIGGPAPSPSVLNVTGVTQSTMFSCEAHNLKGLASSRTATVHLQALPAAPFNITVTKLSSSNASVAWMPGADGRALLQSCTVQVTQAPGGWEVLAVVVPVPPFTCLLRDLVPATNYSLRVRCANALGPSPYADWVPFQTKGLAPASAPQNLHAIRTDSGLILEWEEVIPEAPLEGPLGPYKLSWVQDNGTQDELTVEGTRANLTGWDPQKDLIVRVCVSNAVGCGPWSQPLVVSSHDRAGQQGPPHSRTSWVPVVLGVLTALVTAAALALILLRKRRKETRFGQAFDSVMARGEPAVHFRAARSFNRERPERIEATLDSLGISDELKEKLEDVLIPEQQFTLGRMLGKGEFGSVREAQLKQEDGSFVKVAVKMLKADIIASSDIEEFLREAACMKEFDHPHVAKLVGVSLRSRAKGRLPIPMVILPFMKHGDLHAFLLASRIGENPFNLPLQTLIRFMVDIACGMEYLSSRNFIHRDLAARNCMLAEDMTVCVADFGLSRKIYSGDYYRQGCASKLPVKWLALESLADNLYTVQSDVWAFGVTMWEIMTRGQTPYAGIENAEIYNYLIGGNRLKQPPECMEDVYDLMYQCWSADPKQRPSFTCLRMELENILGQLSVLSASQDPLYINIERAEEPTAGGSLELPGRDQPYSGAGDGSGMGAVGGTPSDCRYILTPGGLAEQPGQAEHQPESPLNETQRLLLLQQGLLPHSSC
The experiment can be described thus: Selectivity interaction (KinomeScan (DiscoverX)) EUB0000092b TYRO3. Particulars: at 10 µM.

T1 sequence (P11362 22-822 limits assumed): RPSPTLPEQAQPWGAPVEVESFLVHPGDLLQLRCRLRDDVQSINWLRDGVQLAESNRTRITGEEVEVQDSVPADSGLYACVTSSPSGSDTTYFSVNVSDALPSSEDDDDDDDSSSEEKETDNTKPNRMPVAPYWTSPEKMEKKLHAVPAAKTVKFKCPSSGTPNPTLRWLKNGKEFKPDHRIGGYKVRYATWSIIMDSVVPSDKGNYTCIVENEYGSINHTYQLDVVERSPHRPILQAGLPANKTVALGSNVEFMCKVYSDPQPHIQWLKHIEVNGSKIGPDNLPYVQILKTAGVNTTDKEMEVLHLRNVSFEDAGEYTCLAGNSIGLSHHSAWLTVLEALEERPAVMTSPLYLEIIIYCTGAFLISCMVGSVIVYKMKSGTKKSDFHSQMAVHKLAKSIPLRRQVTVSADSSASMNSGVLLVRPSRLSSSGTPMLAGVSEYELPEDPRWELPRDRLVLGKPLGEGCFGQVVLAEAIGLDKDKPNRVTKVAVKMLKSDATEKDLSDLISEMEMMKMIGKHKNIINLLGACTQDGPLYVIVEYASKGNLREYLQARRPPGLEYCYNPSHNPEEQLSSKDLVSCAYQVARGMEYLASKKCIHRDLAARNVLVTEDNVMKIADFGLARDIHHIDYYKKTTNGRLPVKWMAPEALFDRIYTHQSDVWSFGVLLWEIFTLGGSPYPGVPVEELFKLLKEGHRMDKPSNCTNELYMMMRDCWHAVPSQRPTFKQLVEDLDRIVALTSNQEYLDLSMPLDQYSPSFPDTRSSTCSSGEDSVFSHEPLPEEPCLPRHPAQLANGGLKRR
Chain of Endothelin-1 receptor (Homo sapiens) (P25101 whole entry): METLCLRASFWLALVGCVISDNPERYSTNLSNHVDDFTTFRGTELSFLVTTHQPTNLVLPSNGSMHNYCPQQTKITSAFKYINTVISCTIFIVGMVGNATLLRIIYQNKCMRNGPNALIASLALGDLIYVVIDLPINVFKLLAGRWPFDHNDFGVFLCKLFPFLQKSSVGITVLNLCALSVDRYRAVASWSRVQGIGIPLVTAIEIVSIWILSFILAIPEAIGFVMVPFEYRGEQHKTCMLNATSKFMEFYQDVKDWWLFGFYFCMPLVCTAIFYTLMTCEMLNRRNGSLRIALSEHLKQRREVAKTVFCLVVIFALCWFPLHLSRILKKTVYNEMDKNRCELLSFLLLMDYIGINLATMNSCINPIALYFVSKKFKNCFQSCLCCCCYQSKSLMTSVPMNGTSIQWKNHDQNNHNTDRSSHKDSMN
Chain of Ephrin type-A receptor 7 (Homo sapiens) (Q15375 28-998 limits assumed): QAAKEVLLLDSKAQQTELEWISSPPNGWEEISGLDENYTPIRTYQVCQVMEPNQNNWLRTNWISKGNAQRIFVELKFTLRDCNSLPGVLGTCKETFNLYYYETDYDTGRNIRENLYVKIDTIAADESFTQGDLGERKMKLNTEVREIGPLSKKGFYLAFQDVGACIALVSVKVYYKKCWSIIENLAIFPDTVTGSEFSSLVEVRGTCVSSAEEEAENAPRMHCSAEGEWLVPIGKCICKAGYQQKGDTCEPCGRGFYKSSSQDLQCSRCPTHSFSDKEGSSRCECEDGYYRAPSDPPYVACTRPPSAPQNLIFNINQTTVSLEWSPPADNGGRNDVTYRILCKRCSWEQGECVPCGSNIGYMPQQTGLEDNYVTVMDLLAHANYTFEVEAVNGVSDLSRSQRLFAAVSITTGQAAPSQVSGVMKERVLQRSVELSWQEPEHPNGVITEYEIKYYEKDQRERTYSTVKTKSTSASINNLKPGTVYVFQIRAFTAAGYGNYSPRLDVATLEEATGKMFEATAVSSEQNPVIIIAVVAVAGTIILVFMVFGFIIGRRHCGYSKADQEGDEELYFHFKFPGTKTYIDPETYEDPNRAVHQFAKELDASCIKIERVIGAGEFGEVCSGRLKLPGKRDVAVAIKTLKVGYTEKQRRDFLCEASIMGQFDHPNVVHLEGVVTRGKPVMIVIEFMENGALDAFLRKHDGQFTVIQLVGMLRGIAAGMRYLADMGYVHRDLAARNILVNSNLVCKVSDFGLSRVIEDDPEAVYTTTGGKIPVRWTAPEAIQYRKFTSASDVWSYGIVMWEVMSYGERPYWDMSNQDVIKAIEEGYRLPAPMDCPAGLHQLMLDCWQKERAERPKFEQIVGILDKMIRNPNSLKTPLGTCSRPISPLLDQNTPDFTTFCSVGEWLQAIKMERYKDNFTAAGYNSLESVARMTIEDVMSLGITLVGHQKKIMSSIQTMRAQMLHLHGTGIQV
Chain of Myosin light chain kinase 2, skeletal/cardiac muscle (Homo sapiens) (Q9H1R3 whole entry): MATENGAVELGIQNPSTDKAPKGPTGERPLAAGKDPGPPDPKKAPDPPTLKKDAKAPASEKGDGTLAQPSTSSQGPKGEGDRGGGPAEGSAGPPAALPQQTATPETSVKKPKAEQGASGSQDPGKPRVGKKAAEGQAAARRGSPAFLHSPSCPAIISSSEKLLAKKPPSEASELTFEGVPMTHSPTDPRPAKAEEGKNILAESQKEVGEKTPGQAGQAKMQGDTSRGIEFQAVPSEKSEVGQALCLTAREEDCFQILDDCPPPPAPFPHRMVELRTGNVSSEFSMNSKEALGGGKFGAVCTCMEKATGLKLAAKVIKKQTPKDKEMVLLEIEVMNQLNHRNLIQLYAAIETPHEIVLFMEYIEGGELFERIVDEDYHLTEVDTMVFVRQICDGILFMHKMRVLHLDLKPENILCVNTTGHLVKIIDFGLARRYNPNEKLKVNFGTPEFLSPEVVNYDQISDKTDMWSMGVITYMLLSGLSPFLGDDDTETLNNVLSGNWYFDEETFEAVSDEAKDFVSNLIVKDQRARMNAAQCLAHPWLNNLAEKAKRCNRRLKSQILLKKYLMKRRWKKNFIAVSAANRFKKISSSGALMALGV

On to `COCC(=O)NC/C=C/c1ccc2ncnc(Nc3ccc(Oc4ccc(C)nc4)c(C)c3)c2c1` [CP-724714], for which the % of control in experiment [1] and in experiment [2] was 100% each time. `CC(=O)c1cc(-c2ccccc2OCC2CC2)c2ncccn12` returned a % of control in experiment [3] of 85%. On to `CNC(=O)Nc1ccc(-c2nc(N3CC4CCC(C3)O4)c3cnn(C4CCC5(CC4)OCCO5)c3n2)cc1`, for which the % of inhibition in experiment [4] was 8%. For `Cc1cc([C@@H](C)Nc2ccccc2C(=O)O)c2nc(N3CCOCC3)cc(=O)n2c1` [AZD-6482], in experiment [5], the % of control stood at 89%. For `Cc1ccc(-c2ccc3c(ccc4sc5c(c43)NC[C@@H](C)NC5=O)n2)cn1`, the % of inhibition in experiment [6] was determined as 97%. The molecule `O[C@H]1CC[C@H](Nc2ncc3nc(Nc4c(F)cc(F)cc4F)n([C@H]4CCOC4)c3n2)CC1` had a % of control in experiment [7] of 99%. In turn, `CCC(=O)N1CCN(c2ccc(-n3c(=O)ccc4cnc5ccc(-c6cnc7ccccc7c6)cc5c43)cc2C(F)(F)F)CC1` came in with a % of control in experiment [8] of 31%.

Values taken from ChEMBL document CHEMBL5465560, “Selectivity Literature for EUbOPEN Chemogenomic Library” (2024).
